Reference: patent US6566307B1, “α,α′-substituted n-alkyl-3-alkenylbenzoyl-pyrazol-derivatives” (BASF Aktiengesellschaft, priority 1999, dated 2003)

How the values were obtained:
Test in all cases: Greenhouse herbicidal activity, post-emergence method
Details in all cases: scale 0 to 100 (100 = complete destruction, 0 = no damage)
ECHCG = format: in vivo, barnyardgrass
Text: (§1) The herbicidal activity of the compounds of the formula I was shown by greenhouse experiments: The culture containers used are plastic pots containing loamy sand with approximately 3.0% of humus as the substrate. The seeds of the test plants are sown separately for each species. For the post-emergence treatment, the test plants were first grown to a height of 3 to 15 cm, depending on the plant form, and only then treated with the active compounds which have been suspended or emulsified in water. The test plants were for this purpose either sown directly and grown in the same containers, or they were first grown separately as seedlings and transplanted into the test containers a few days prior to treatment. The application rate for the post-emergence treatment was 0.25, 0.125 or 0.0625 kg of active substance (a.s.)/ha. Depending on the species, the plants were kept at 10-25° C. or 20-35° C. The test period extended over 2 to 4 weeks. During this time, the plants are tended, and their response to the individual treatments was evaluated. The evaluation was carried out using a scale from 0 to 100. 100 means no emergence of the plants, or complete destruction of at least the aerial parts and 0 means no damage, or normal course of growth. The plants used in the greenhouse experiments were composed of the following species: [table]

SETVI = format: in vivo, green foxtail
Text: as §1

CHEAL = format: in vivo, lambsquarter
Text: as §1

POLPE = format: in vivo, ladysthumb
Text: as §1

SINAL = format: in vivo, white mustard
Text: as §1

[1] = application rate 0.0625 kg of a.s./ha
[2] = application rate 0.125 kg of a.s./ha

C=Cc1c(S(C)(=O)=O)ccc(C(=O)C2C=NN(C(C)C)C2O)c1OC (stereo not shown)
Herbicidal activity when used by the post-emergence method in a greenhouse (ECHCG; [1]): 95 | Herbicidal activity when used by the post-emergence method in a greenhouse (ECHCG; [2]): 95 | Herbicidal activity when used by the post-emergence method in a greenhouse (SETVI; [1]): 95 | Herbicidal activity when used by the post-emergence method in a greenhouse (SETVI; [2]): 95 | Herbicidal activity when used by the post-emergence method in a greenhouse (CHEAL; [1]): 100 | Herbicidal activity when used by the post-emergence method in a greenhouse (CHEAL; [2]): 100 | Herbicidal activity when used by the post-emergence method in a greenhouse (POLPE; [1]): 100 | Herbicidal activity when used by the post-emergence method in a greenhouse (POLPE; [2]): 100 | Herbicidal activity when used by the post-emergence method in a greenhouse (SINAL; [1]): 98 | Herbicidal activity when used by the post-emergence method in a greenhouse (SINAL; [2]): 98
